Values joined by “and” are separate entries in the source; they are usually repeats but may differ in a detail not shown here. Identical values can stand only once. Like-named read-outs stand apart in the source and are kept apart here. Ends that are not written are not given here.
Legend:
PEDV YNKM strain = assay type: cell-based, porcine epidemic diarrhea virus; conditions: for residual infectivity: n = 3
PRV Ea strain = assay type: cell-based, pseudorabies virus
PRV-Ea [1] = assay type: cell-based, pseudorabies virus
TGEV WH-1 strain = assay type: cell-based, transmissible gastroenteritis virus; conditions: for residual infectivity: n = 3
PRV-Ea [2] = tested on: PRV-Ea
[3] = tested on: PRV-152 (modified Bartha strain); assay type: cell-based, pseudorabies virus; conditions: n = 3
RV TM-a strain = assay type: cell-based, rotavirus; conditions: n = 3
PRRSV YA isolate = assay type: cell-based, porcine reproductive and respiratory syndrome virus
PRV-HNXX = assay type: cell-based, pseudorabies virus; conditions: n = 3
PRV-Ea [4] = tested on: PRV-Ea; remark: listed apart in the source

Compound | residual infectivity (PRV Ea strain; n = 3) | inhibitory effect on PRV, post-infection (curative) (PRV-Ea [1]) | inhibitory effect on PRV, pre-infection (prophylactic) (PRV-Ea [1]) | inhibition of PRV particles (in words) (PRV-Ea [2]) | 50% effective concentration (EC50) (PRV-Ea [2]; 1 h) [µg/mL] | inhibitory activity against PRV 152 (in words) [3] | 50% toxic concentration (TC50) (PK-15 cells; 48 h) [µg/mL] | residual infectivity (RV TM-a strain) | inhibitory activity against PRV HNXX (in words) (PRV-HNXX) | residual infectivity (PEDV YNKM strain) | decrease in the residual infectivity (PRV Ea strain) | antiviral activity against PRV (in words) (PRV Ea strain) | residual infectivity (TGEV WH-1 strain) [%] | further results
GLFGVLAKVAAHVVPAIAEHF-NH2 (C-terminus assumed) [maculatin, maculatin 1.1] | 10.1% and 10.11% | No inhibitory effect | No inhibitory effect | inhibit most of the PRV particles | 1.09 | displayed inhibitory activities | 76.6 | 43.4% | displayed inhibitory activities | – | – | – | – | activity against PEDV (in words) (PEDV YNKM strain): limited activity; residual infectivity (PRV Ea strain): 0.0017%; activity against TGEV (in words) (TGEV WH-1 strain): limited activity; activity against PRRSV (in words) (PRRSV YA isolate): limited activity
GLLSVLGSVAKHVLPHVVPVIAEHL-NH2 (C-terminus assumed) [caerin, caerin 1.1] | around 2.3% | No inhibitory effect | No inhibitory effect | inhibit most of the PRV particles | 2.63 | displayed inhibitory activities | 67.8 | lower than 50% | displayed inhibitory activities | 0.2% | more than 30 folds | – | – | residual infectivity (PRRSV YA isolate; n = 3): 41.1%
FKCRRWQWRMKKLGAPSITCVRRAF [lactoferricin B] | – | – | – | – | – | – | – | – | – | – | – | mild antiviral activity | 54.1 | cytotoxic activity at maximum concentration (PK-15 cells): did not exhibit obvious cytotoxic activity
FFHHIFRGIVHVGKTIHRLVTG [piscidin, piscidin 1] | around 2.3% | No inhibitory effect | No inhibitory effect | inhibit most of the PRV particles | – | displayed inhibitory activities | – | 7.4% | displayed inhibitory activities | lower than 50% | more than 30 folds | – | 41.5 | brain pathology (H&E) (PRV-Ea [4]; mouse, in vivo): no specific symptom; clinical signs, peptide alone (PRV-Ea [4]; mouse, in vivo): remained asymptomatic; clinical symptoms versus PRV infected mice (PRV-Ea [4]; mouse, in vivo): symptoms appeared later and not so severe; outcome after re-challenge (PRV-Ea [4]; mouse, in vivo): all died; protection against PRV infection (in words) (PRV-Ea [4]; mouse, in vivo): obviously protected; survival and behaviour after peptide alone (PRV-Ea [4]; mouse, in vivo): All mice survived and behaved normally; survival rate of mice (PRV-Ea [4]; mouse, in vivo): 90%; survival rates at the end of the experiment (PRV-Ea [4]; mouse, in vivo): 30%; mice with severe neurological symptoms euthanized (PRV-Ea [4]; n = 10): 6 and 5 and 7; 50% effective concentration (EC50) (PRV-Ea [2]; n = 3): 0.23 µg/mL; 50% toxic concentration (TC50) (PK-15 cells): 65.2 µg/mL
CC[C@H](C)[C@H](N)C(=O)N[C@@H](CC(C)C)C(=O)N1CCC[C@H]1C(=O)N[C@@H](Cc1c[nH]c2ccccc12)C(=O)N[C@@H](CCCCN)C(=O)N[C@@H](Cc1c[nH]c2ccccc12)C(=O)N1CCC[C@H]1C(=O)N[C@@H](Cc1c[nH]c2ccccc12)C(=O)N[C@@H](Cc1c[nH]c2ccccc12)C(=O)N1CCC[C@H]1C(=O)N[C@@H](Cc1c[nH]c2ccccc12)C(=O)N[C@@H](CCCNC(=N)N)C(=O)N[C@@H](CCCNC(=N)N)C(N)=O [indolicidin] | 34.6% | – | – | – | – | – | 110.2 | – | – | – | – | mild antiviral activity | – | –

Source: publication PMC6670175 (Virology Journal, 2019)
